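How tested: cells in 96-well plates exposed to compound for 48 hours at five concentrations. GI50: concentration for 50% inhibition of growth. At the TGI there is no net growth.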
Assays:
Assay in all cases: NCI-60 cell line screen, 48 h
NCI-H23 lung = test system: NCI-H23 lung
HT29 colon = test system: HT29 colon
HS 578T breast = test system: HS 578T breast
RXF 393 renal = test system: RXF 393 renal
HOP-92 NSCLC = test system: HOP-92 NSCLC
LOX IMVI melanoma = test system: LOX IMVI melanoma
SK-MEL-2 melanoma = test system: SK-MEL-2 melanoma
T-47D breast = test system: T-47D breast
NCI-H460 lung = test system: NCI-H460 lung
SF-539 CNS = test system: SF-539 CNS
MDA-MB-435 = test system: MDA-MB-435
MCF7 breast = test system: MCF7 breast
786-0 renal = test system: 786-0 renal
OVCAR-5 ovarian = test system: OVCAR-5 ovarian
KM12 colon = test system: KM12 colon
SNB-75 CNS = test system: SNB-75 CNS
UACC-257 melanoma = test system: UACC-257 melanoma
RPMI-8226 leukemia = test system: RPMI-8226 leukemia
A549 NSCLC = test system: A549 NSCLC
IGROV1 ovarian = test system: IGROV1 ovarian
UACC-62 melanoma = test system: UACC-62 melanoma
U251 CNS = test system: U251 CNS
BT-549 breast = test system: BT-549 breast
SNB-19 CNS = test system: SNB-19 CNS
HCT-15 colon = test system: HCT-15 colon
SK-MEL-5 melanoma = test system: SK-MEL-5 melanoma
SF-268 CNS = test system: SF-268 CNS
DU-145 prostate = test system: DU-145 prostate
SF-295 CNS = test system: SF-295 CNS
M14 melanoma = test system: M14 melanoma
K-562 leukemia = test system: K-562 leukemia
NCI/ADR-RES ovarian = test system: NCI/ADR-RES ovarian
CCRF-CEM leukemia = test system: CCRF-CEM leukemia
HOP-62 NSCLC = test system: HOP-62 NSCLC
PC-3 prostate = test system: PC-3 prostate
COLO 205 colon = test system: COLO 205 colon
SW-620 colon = test system: SW-620 colon
HCT-116 colon = test system: HCT-116 colon
HL-60(TB) leukemia = test system: HL-60(TB) leukemia
NCI-H522 lung = test system: NCI-H522 lung
SR leukemia = test system: SR leukemia
ACHN renal = test system: ACHN renal
HCC-2998 colon = test system: HCC-2998 colon
MOLT-4 leukemia = test system: MOLT-4 leukemia
OVCAR-8 ovarian = test system: OVCAR-8 ovarian
SK-MEL-28 melanoma = test system: SK-MEL-28 melanoma
OVCAR-3 ovarian = test system: OVCAR-3 ovarian
MDA-MB-231 breast = test system: MDA-MB-231 breast
EKVX NSCLC = test system: EKVX NSCLC
UO-31 renal = test system: UO-31 renal
MALME-3M melanoma = test system: MALME-3M melanoma
SK-OV-3 ovarian = test system: SK-OV-3 ovarian
CAKI-1 renal = test system: CAKI-1 renal
A498 renal = test system: A498 renal
OVCAR-4 ovarian = test system: OVCAR-4 ovarian
NCI-H226 lung = test system: NCI-H226 lung
SN12C renal = test system: SN12C renal
TK-10 renal = test system: TK-10 renal

## CN1CCN(c2ccc3nc(-c4c5cccccc-5[nH]c4=O)[nH]c3c2)CC1
NCI-H23 lung
  GI50: 13.9 µM
  TGI: 51.7 µM
HT29 colon
  GI50: 8 µM
  TGI: 23.1 µM
HS 578T breast
  GI50: 13 µM
  TGI: > 100 µM
RXF 393 renal
  GI50: 3.39 µM
  TGI: 15.8 µM
HOP-92 NSCLC
  GI50: 18 µM
  TGI: > 100 µM
LOX IMVI melanoma
  GI50: 7.78 µM
  TGI: 22.4 µM
SK-MEL-2 melanoma
  GI50: 27.1 µM
  TGI: > 66.9 µM
T-47D breast
  GI50: 30.8 µM
  TGI: > 91.7 µM
NCI-H460 lung
  GI50: 5.45 µM
  TGI: 27.2 µM
SF-539 CNS
  GI50: 10.1 µM
  TGI: 22.8 µM
MDA-MB-435
  GI50: 14.3 µM
  TGI: 29.7 µM
MCF7 breast
  GI50: 6.27 µM
  TGI: 32.1 µM
786-0 renal
  GI50: 11.2 µM
  TGI: 46.6 µM
OVCAR-5 ovarian
  GI50: 15.9 µM
  TGI: 52.1 µM
KM12 colon
  GI50: 266 nM
  TGI: 13.9 µM
SNB-75 CNS
  GI50: 7.64 µM
  TGI: > 45.2 µM
UACC-257 melanoma
  GI50: 17.6 µM
  TGI: 35.3 µM
RPMI-8226 leukemia
  GI50: 16.8 µM
  TGI: 62.4 µM
A549 NSCLC
  GI50: 7.58 µM
  TGI: > 59.3 µM
IGROV1 ovarian
  GI50: 5.27 µM
  TGI: 45.5 µM
UACC-62 melanoma
  GI50: 19.6 µM
  TGI: 43.4 µM
U251 CNS
  GI50: 11.6 µM
  TGI: 41 µM
BT-549 breast
  GI50: 13.4 µM
  TGI: 66 µM
SNB-19 CNS
  GI50: 12.3 µM
  TGI: 71.6 µM
HCT-15 colon
  GI50: 11.5 µM
  TGI: 55.9 µM
SK-MEL-5 melanoma
  GI50: 14.8 µM
  TGI: 28.3 µM
SF-268 CNS
  GI50: 11.9 µM
  TGI: 40.3 µM
DU-145 prostate
  GI50: 9.67 µM
  TGI: 35.8 µM
SF-295 CNS
  GI50: 20.3 µM
  TGI: > 76.5 µM
M14 melanoma
  GI50: 13.3 µM
  TGI: 27.8 µM
K-562 leukemia
  GI50: 10.6 µM
  TGI: 53.4 µM
NCI/ADR-RES ovarian
  GI50: 23.4 µM
  TGI: 97.4 µM
CCRF-CEM leukemia
  GI50: 10.1 µM
  TGI: > 84.1 µM
HOP-62 NSCLC
  GI50: 10.5 µM
  TGI: 54.7 µM
PC-3 prostate
  GI50: 17.4 µM
  TGI: > 100 µM
COLO 205 colon
  GI50: 8.39 µM
  TGI: 22.2 µM
SW-620 colon
  GI50: 5.79 µM
  TGI: 43.7 µM
HCT-116 colon
  GI50: 9.55 µM
  TGI: 25.5 µM
HL-60(TB) leukemia
  GI50: 13.7 µM
  TGI: 33.5 µM
NCI-H522 lung
  GI50: 15.6 µM
  TGI: > 46.8 µM
SR leukemia
  GI50: 12.7 µM
  TGI: 49.5 µM
ACHN renal
  GI50: 6.09 µM
  TGI: 60.9 µM
HCC-2998 colon
  GI50: 13.7 µM
  TGI: 37 µM
MOLT-4 leukemia
  GI50: 3.49 µM
  TGI: 22.3 µM
OVCAR-8 ovarian
  GI50: 11.3 µM
  TGI: > 72.2 µM
SK-MEL-28 melanoma
  GI50: 15.6 µM
  TGI: 30.3 µM
OVCAR-3 ovarian
  GI50: 17.2 µM
  TGI: 58.2 µM
MDA-MB-231 breast
  GI50: 11.8 µM
  TGI: 36.7 µM
EKVX NSCLC
  GI50: 29.4 µM
  TGI: > 100 µM
UO-31 renal
  GI50: 3.53 µM
  TGI: 52.9 µM
MALME-3M melanoma
  GI50: 14.6 µM
  TGI: 31 µM
SK-OV-3 ovarian
  GI50: 9.43 µM
  TGI: 83.1 µM
CAKI-1 renal
  GI50: 7.29 µM
  TGI: > 62.1 µM
A498 renal
  GI50: 4.77 µM
  TGI: 21.4 µM
OVCAR-4 ovarian
  GI50: 13.9 µM
  TGI: 55.2 µM
NCI-H226 lung
  GI50: 7.18 µM
  TGI: 55.9 µM
SN12C renal
  GI50: 5.37 µM
  TGI: > 80.9 µM
TK-10 renal
  GI50: 27.9 µM
  TGI: > 74.5 µM
